# From patent US20170190671A1, “BIS(ARYL)CATECHOL DERIVATIVES AS HERBICIDES” (E I DU PONT DE NEMOURS AND COMPANY, priority 2014, published 2017)
# Key:
# Assay type in all cases: in vivo
# [1] = tested on: giant foxtail (Setaria faberii); assay: Test C postemergence; conditions: Setaria faberi, post-emergence, 336 h, Postemergence, scale 0 to 100, read-out: Plant response rating, Foxtail, Giant
# How it was run: (§1)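 Seeds sown in a loam soil and sand blend were treated preemergence; plants in peat-moss/vermiculite medium were sprayed at the 1- to 4-leaf stage (2-18 cm). Chemicals were in a non-phytotoxic surfactant-containing solvent. After 13 to 15 days in a greenhouse, injury was visually rated against controls on a 0-100 scale.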
# [2] = tested on: barnyardgrass (Echinochloa crus-galli); assay: Test C postemergence; conditions: Echinochloa crus-galli, post-emergence, Postemergence, scale 0 to 100, read-out: Plant response rating, Barnyardgrass
# How it was run: as §1
# [3] = tested on: chickweed (common chickweed, Stellaria media); assay: Test C postemergence; conditions: Stellaria media, post-emergence, Postemergence, scale 0 to 100, read-out: Plant response rating, Chickweed
# How it was run: as §1
# [4] = tested on: blackgrass (Alopecurus myosuroides); assay: Test C postemergence; conditions: Alopecurus myosuroides, post-emergence, 336 h, Postemergence, scale 0 to 100, read-out: Plant response rating, Blackgrass
# How it was run: as §1
# [5] = tested on: large (Lg) crabgrass (Digitaria sanguinalis); assay: Test C postemergence; conditions: Digitaria sanguinalis, post-emergence, 336 h, Postemergence, scale 0 to 100, read-out: Plant response rating, Crabgrass, Large
# How it was run: as §1
# [6] = tested on: waterhemp (common waterhemp, Amaranthus rudis); assay: Test C postemergence; conditions: Amaranthus tuberculatus, post-emergence, Postemergence, scale 0 to 100, read-out: Plant response rating, Waterhemp
# How it was run: as §1
# [7] = tested on: morningglory (Ipomoea coccinea); assay: Test C postemergence; conditions: Ipomoea, post-emergence, 336 h, Postemergence, scale 0 to 100, read-out: Plant response rating, Morningglory
# How it was run: as §1
# [8] = tested on: lambsquarters (Chenopodium album); assay: Test C postemergence; conditions: Chenopodium album, post-emergence, 336 h, Postemergence, scale 0 to 100, read-out: Plant response rating, Lambsquarters
# How it was run: as §1
# [9] = tested on: yellow nutsedge (Cyperus esculentus); assay: Test C postemergence; conditions: Cyperus, post-emergence, 336 h, Postemergence, scale 0 to 100, read-out: Plant response rating, Nutsedge, Yellow
# How it was run: as §1
# soybean (Glycine max) = assay: Test C postemergence; conditions: Glycine max, post-emergence, Postemergence, scale 0 to 100, read-out: Plant response rating, Soybean
# How it was run: as §1
# [10] = tested on: oilseed rape (Brassica napus); assay: Test C postemergence; conditions: Brassica napus, post-emergence, Postemergence, scale 0 to 100, read-out: Plant response rating, Oilseed Rape
# How it was run: as §1
# wild oat (Avena fatua) = assay: Test C postemergence; conditions: Avena fatua, post-emergence, Postemergence, scale 0 to 100, read-out: Plant response rating, Oat, Wild
# How it was run: as §1
# [11] = tested on: Italian ryegrass (Lolium multiflorum); assay: Test C postemergence; conditions: Lolium multiflorum, post-emergence, 336 h, Postemergence, scale 0 to 100, read-out: Plant response rating, Ryegrass, Italian
# How it was run: as §1
# [12] = tested on: winter wheat (Triticum aestivum); assay: Test C postemergence; conditions: Triticum aestivum, post-emergence, 336 h, Postemergence, scale 0 to 100, read-out: Plant response rating, Wheat
# How it was run: as §1
# [13] = tested on: johnsongrass (Sorghum halepense); assay: Test C postemergence; conditions: Sorghum halepense, post-emergence, 336 h, Postemergence, scale 0 to 100, read-out: Plant response rating, Johnsongrass
# How it was run: as §1
# [14] = tested on: velvetleaf (Abutilon theophrasti); assay: Test C postemergence; conditions: Abutilon theophrasti, post-emergence, Postemergence, scale 0 to 100, read-out: Plant response rating, Velvetleaf
# How it was run: as §1
# [15] = tested on: galium (catchweed bedstraw, Galium aparine); assay: Test C postemergence; conditions: Galium, post-emergence, 336 h, Postemergence, scale 0 to 100, read-out: Plant response rating, Galium
# How it was run: as §1
# [16] = tested on: ragweed (common ragweed, Ambrosia elatior); assay: Test C postemergence; conditions: Ambrosia artemisiifolia, post-emergence, 336 h, Postemergence, scale 0 to 100, read-out: Plant response rating, Ragweed
# How it was run: as §1
# corn (Zea mays) = assay: Test C postemergence; conditions: Zea mays, post-emergence, 336 h, Postemergence, scale 0 to 100
# How it was run: as §1
# [17] = tested on: barnyardgrass (Echinochloa crus-galli); assay: Test C preemergence; conditions: Echinochloa crus-galli, pre-emergence, read-out: Plant response rating, Barnyardgrass
# How it was run: as §1
# [18] = tested on: johnsongrass (Sorghum halepense); assay: Test C preemergence; conditions: Sorghum halepense, pre-emergence, 336 h, scale 0 to 100, read-out: Plant response rating, Johnsongrass
# How it was run: as §1
# [19] = tested on: galium (catchweed bedstraw, Galium aparine); assay: Test C preemergence; conditions: Galium, pre-emergence, 336 h, scale 0 to 100, read-out: Plant response rating, Galium
# How it was run: as §1
compound,measurement,setting,value
"Fc1cccc(Oc2ncc(C(F)(F)F)cn2)c1Oc1ncc(Cl)cn1 [Compound 42, 5-chloro-2-[2-fluoro-6-[[5-(trifluoromethyl)-2-pyrimidinyl]oxy]phenoxy]pyrimidine]",pest or weed control at 16 g/ha,[1]; 16 g ai/ha,30%
same,pest or weed control at 31 g/ha,[1]; 31 g ai/ha,30%
same,pest or weed control at 62 g/ha,[1]; 62 g ai/ha,35%
same,pest or weed control at 125 g/ha,[1]; 125 g ai/ha,35%
same,pest or weed control at 16 g/ha,[2]; 16 g ai/ha,5%
same,pest or weed control at 31 g/ha,[2]; 31 g ai/ha,5%
same,pest or weed control at 62 g/ha,[2]; 62 g ai/ha,10%
same,pest or weed control at 125 g/ha,[2]; 125 g ai/ha,20%
same,pest or weed control at 16 g/ha,[3]; 16 g ai/ha,20%
same,pest or weed control at 31 g/ha,[3]; 31 g ai/ha,90%
same,pest or weed control at 62 g/ha,[3]; 62 g ai/ha,95%
same,pest or weed control at 125 g/ha,[3]; 125 g ai/ha,95%
same,pest or weed control at 16 g/ha,[4]; 16 g ai/ha,10%
same,pest or weed control at 31 g/ha,[4]; 31 g ai/ha,20%
same,pest or weed control at 62 g/ha,[4]; 62 g ai/ha,20%
same,pest or weed control at 125 g/ha,[4]; 125 g ai/ha,80%
same,pest or weed control at 16 g/ha,[5]; 16 g ai/ha,10%
same,pest or weed control at 31 g/ha,[5]; 31 g ai/ha,20%
same,pest or weed control at 62 g/ha,[5]; 62 g ai/ha,15%
same,pest or weed control at 125 g/ha,[5]; 125 g ai/ha,40%
same,pest or weed control at 31 g/ha,[6]; 31 g ai/ha,90%
same,pest or weed control at 62 g/ha,[6]; 62 g ai/ha,95%
same,pest or weed control at 125 g/ha,[6]; 125 g ai/ha,95%
same,pest or weed control at 31 g/ha,[7]; 31 g ai/ha,70%
same,pest or weed control at 62 g/ha,[7]; 62 g ai/ha,75%
same,pest or weed control at 125 g/ha,[7]; 125 g ai/ha,85%
same,pest or weed control at 16 g/ha,[8]; 16 g ai/ha,80%
same,pest or weed control at 31 g/ha,[8]; 31 g ai/ha,80%
same,pest or weed control at 62 g/ha,[8]; 62 g ai/ha,90%
same,pest or weed control at 125 g/ha,[8]; 125 g ai/ha,95%
same,pest or weed control at 31 g/ha,[9]; 31 g ai/ha,0%
same,pest or weed control at 62 g/ha,[9]; 62 g ai/ha,5%
same,pest or weed control at 125 g/ha,[9]; 125 g ai/ha,5%
same,plant injury at 31 g/ha,soybean (Glycine max); 31 g ai/ha,55%
same,plant injury at 62 g/ha,soybean (Glycine max); 62 g ai/ha,65%
same,plant injury at 125 g/ha,soybean (Glycine max); 125 g ai/ha,85%
same,plant injury at 31 g/ha,[10]; 31 g ai/ha,50%
same,plant injury at 62 g/ha,[10]; 62 g ai/ha,70%
same,plant injury at 125 g/ha,[10]; 125 g ai/ha,85%
same,pest or weed control at 31 g/ha,wild oat (Avena fatua); 31 g ai/ha,10%
same,pest or weed control at 62 g/ha,wild oat (Avena fatua); 62 g ai/ha,40%
same,pest or weed control at 125 g/ha,wild oat (Avena fatua); 125 g ai/ha,60%
same,pest or weed control at 31 g/ha,[11]; 31 g ai/ha,0%
same,pest or weed control at 62 g/ha,[11]; 62 g ai/ha,10%
same,pest or weed control at 125 g/ha,[11]; 125 g ai/ha,35%
same,plant injury at 31 g/ha,[12]; 31 g ai/ha,0%
same,plant injury at 62 g/ha,[12]; 62 g ai/ha,0%
same,plant injury at 125 g/ha,[12]; 125 g ai/ha,10%
same,pest or weed control at 16 g/ha,[13]; 16 g ai/ha,10%
same,pest or weed control at 31 g/ha,[13]; 31 g ai/ha,10%
same,pest or weed control at 62 g/ha,[13]; 62 g ai/ha,10%
same,pest or weed control at 125 g/ha,[13]; 125 g ai/ha,40%
same,pest or weed control at 31 g/ha,[14]; 31 g ai/ha,60%
same,pest or weed control at 62 g/ha,[14]; 62 g ai/ha,70%
same,pest or weed control at 125 g/ha,[14]; 125 g ai/ha,85%
same,pest or weed control at 16 g/ha,[15]; 16 g ai/ha,75%
same,pest or weed control at 31 g/ha,[15]; 31 g ai/ha,98%
same,pest or weed control at 62 g/ha,[15]; 62 g ai/ha,100%
same,pest or weed control at 125 g/ha,[15]; 125 g ai/ha,100%
same,pest or weed control at 31 g/ha,[16]; 31 g ai/ha,65%
same,pest or weed control at 62 g/ha,[16]; 62 g ai/ha,70%
same,pest or weed control at 125 g/ha,[16]; 125 g ai/ha,65%
same,"Corn plant response rating (crop injury, 0 = no effect, 100 = complete kill) at 16 g/ha",corn (Zea mays); 16 g ai/ha,5%
same,"Corn plant response rating (crop injury, 0 = no effect, 100 = complete kill) at 31 g/ha",corn (Zea mays); 31 g ai/ha,5%
same,"Corn plant response rating (crop injury, 0 = no effect, 100 = complete kill) at 62 g/ha",corn (Zea mays); 62 g ai/ha,10%
same,"Corn plant response rating (crop injury, 0 = no effect, 100 = complete kill) at 125 g/ha",corn (Zea mays); 125 g ai/ha,25%
same,pest or weed control at 31 g/ha,"[17]; 31 g ai/ha, preemergence, scale 0 to 100",90%
same,pest or weed control at 62 g/ha,"[17]; 62 g ai/ha, preemergence, scale 0 to 100",100%
same,pest or weed control at 125 g/ha,"[17]; 125 g ai/ha, preemergence, scale 0 to 100",100%
same,pest or weed control at 16 g/ha,"[17]; Preemergence, 16 g ai/ha, scale 0 to 100 (0 no effect, 100 complete control)",50%
same,pest or weed control at 31 g/ha,"[18]; 31 g ai/ha, preemergence",70%
same,pest or weed control at 62 g/ha,"[18]; 62 g ai/ha, preemergence",100%
same,pest or weed control at 125 g/ha,"[18]; 125 g ai/ha, preemergence",100%
same,pest or weed control at 16 g/ha,"[18]; Preemergence, 16 g ai/ha",30%
same,pest or weed control at 31 g/ha,"[19]; 31 g ai/ha, preemergence",95%
same,pest or weed control at 62 g/ha,"[19]; 62 g ai/ha, preemergence",95%
same,pest or weed control at 125 g/ha,"[19]; 125 g ai/ha, preemergence",98%
same,pest or weed control at 16 g/ha,"[19]; Preemergence, 16 g ai/ha",95%
